The values below come from patent US8133864B2, “PAR-2 agonist” (Kowa Company, Ltd., priority 2005, dated 2012).

Counter-ions that a name gives are not always drawn.

In assay [1] the target is T1, PAR-2 (Homo sapiens, UniProt P55085).
T1 sequence (P55085 26-397): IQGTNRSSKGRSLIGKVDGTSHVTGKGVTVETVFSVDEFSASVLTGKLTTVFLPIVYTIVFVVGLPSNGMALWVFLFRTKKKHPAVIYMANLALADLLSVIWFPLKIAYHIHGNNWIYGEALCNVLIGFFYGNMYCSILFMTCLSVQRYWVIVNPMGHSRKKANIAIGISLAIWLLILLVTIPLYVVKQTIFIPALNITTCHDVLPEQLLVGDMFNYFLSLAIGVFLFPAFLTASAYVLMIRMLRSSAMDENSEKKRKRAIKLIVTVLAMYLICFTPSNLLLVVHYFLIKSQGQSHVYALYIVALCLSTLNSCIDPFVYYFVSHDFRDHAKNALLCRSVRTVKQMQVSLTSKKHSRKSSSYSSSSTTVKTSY
As to the kind of experiment: PAR-2 agonist-mediated intracellular calcium dynamics assay in HCT-15 cells (modified method of Howthorne et al.). It counts as cell-based. On the set-up: HCT-15 cells, human colorectal cancer cell lines endogenously expressing high level of PAR-2; endogenous in cells; host or cells: HCT-15 human colorectal cancer cells. Particulars: for EC50: HCT-15 cells endogenously expressing PAR-2, Ca2+ sensitive fluorescent dye, 2.5 mM probenecid, serum-free RPMI. From the text: The PAR-2 activation of peptide derivatives represented by the general formula (1) can be tested by various known methods. For example, the method of Hollenberg (Hollenberg, M.D., et al., Can. J. Physiol. Pharmacol., 75, 832-841(1997)), the method of Kawabata et al. (Kawabata, A., et al., J. Pharmacol. Exp. Ther., 288, 358-370(1999)), the method of Howthorne et al. (Howthorne et al., A High-Throughput Microtiter Plate-Based Calcium Assay for the Study of Protease-Activated Receptor 2 Activation, Analytical Biochemistry 290, 378-379(2001)), and the like can be used. The present inventors tested PAR-2 activation potency by using the modified method of Howthorne et al. More specifically the method is for assaying calcium dynamics in a cell expressing human PAR-2 intracellularly. In this assay, PAR-2 agonist mediated calcium dynamics (concentration variability) in a cell is measured by using a multiple-well plate reader wherein the cell has Ca^2+ sensitive fluorescent dye introduced and stimulated by PAR-2 agonist under probenecid, which inhibits anion-exchange transporter, present. HCT-15 cells, human colorectal cancer cell lines endogenously expressing high level of PAR-2, were plated in a black-wall clear-bottom 96 well plate. Subconfluent cells were labeled with Ca^2+ sensitive fluorescent dye (Calcium Assay Reagent, Molecular Devices) in a RPMI culture medium in the presence of 2.5 mM probenecid absence of serum, and incubated for 1 hour at 37 ° C. Thereafter, the cells were stimulated with test compounds at various concentrations, and fluorescence change was measured using a scanning fluorometer (Flex Station, Molecular Devices) using excitation wavelength of 485 nm and fluorescence wavelength of 525 nm (cut-off wavelength of 515 nm). As a comparative compound, SLIGKV(SEQ ID: NO 1) —OH which is known as PAR-2 activated peptide was used. The results are shown in TAB.1.

In assay [2] the target is T1, PAR-2. The settings on record: relative to TRAP (tethered receptor agonist peptide); cited from earlier work.

For orientation: EC50 means the concentration at which the effect is half-maximal.

In the case of `O=C(CNC(=O)[C@H](CC1CCCCC1)NC(=O)c1ccco1)NCC(=O)N[C@@H](CCCN1CCCCC1)C(=O)NCCN1CCCCC1` [Example 2, (S)-2-[(2-furoyl)-β-cyclohexyl-L-alanyl-glycyl-glycyl-amino]-5-(1-piperidinyl)pentanoic acid N-[2-(1-piperidinyl)ethyl] amide dihydrochloride], the EC50 at PAR-2 [1] stood at 4.1 ± 0.4 µM.
On to `O=C(CNC(=O)[C@H](CC1CCCCC1)NC(=O)c1ccco1)NCC(=O)N[C@@H](CCCN1CCCCC1)C(=O)NCc1ccccc1` [Example 1, (S)-2-[(2-furoyl)-β-cyclohexyl-L-alanyl-glycyl-glycyl-amino]-5-(1-piperidinyl)pentanoic acid benzyl amide], for which the EC50 at PAR-2 [1] was found to be 2.3 ± 0.3 µM. On PAR-2 [1] (HCT-15 cells, calcium assay), the “agonist activity against PAR-2 (result in words; comparator not given, presumably the comparison compound)” value is “higher agonist activity”.
Take Nα-benzoyl-Arg (NO2)-Leu-NH2: the “intensity to activate PAR-2 relative to TRAP” value on PAR-2 [2] is on record as “about 1/100”.
